According to PubChem BioAssay AID2305 (GlaxoSmithKline (GSK), 2010):
“And” between values parts separate entries of the source, which are not always exact repeats. Identical values can stand only once.

Test system: P. falciparum 3D7 growth, pLDH absorbance
Test: blood-stage malaria parasite growth potency – strain 3D7, dose response (AID 2305)

SMILES	IC50
Cc1ccc(NC(=O)c2ccc(N3CCN(c4ccncc4)CC3)cc2)cc1F	740 nM
COCCN(C(=O)Cc1cccs1)C(C(=O)NCc1ccc(OC)cc1)c1ccc(C(C)C)cc1 (stereo not drawn)	840 nM
O=C(Nc1ccc(Cl)c(Cl)c1)N1CCc2ccc(OCCCN3CCCCC3)cc2CC1	1520 nM
O=C(C=Cc1ccccc1C(F)(F)F)NC1CCC(CN2CCC(c3c[nH]c4ccccc34)CC2)CC1 (stereo not drawn)	900 nM and 680 nM
CN1CCCc2ccc(NC(=O)c3cnc(-c4ccccc4)cn3)cc21	910 nM
CN1CCCC(COc2cc3c(cc2Br)CCN3C(=O)Nc2ccc(-c3ccncc3)c(Cl)c2)C1 (stereo not drawn)	230 nM
COC(=O)c1cccc(CNCc2cccc(-c3cccc(-c4nc5c(C)cccc5[nH]4)c3)c2)c1	190 nM
CCN(CC)CCN(Cc1ccc(-c2ccc(C(F)(F)F)cc2)cc1)C(=O)Cn1c(CCc2cccc(F)c2F)nc(=O)c2cc(C)ccc21	940 nM
Cc1cc(N[C@@H](Cc2ccccc2)C(=O)NCc2cccs2)nc(NCCc2ccccn2)n1	1280 nM
OCCN1CCN(c2nc(Nc3cccc(F)c3)c3cnn(-c4ccccc4)c3n2)CC1	830 nM
CC(Cc1ccc(Oc2ccc(Cl)cc2)cc1)NCC(O)c1cccc(Cl)c1 (stereo not drawn)	740 nM
CCOc1ccc(NC(=O)c2cn3nc(-c4ccc(OCC)cc4)cc3nc2C2CCNCC2)cc1	510 nM
CN1CCCC1CCNCc1cccc(-c2cnc(N(C)C3CCCCC3)nc2)c1 (stereo not drawn)	850 nM
O=C(NCCCCN1CCC(c2ccc3ccccc3c2O)CC1)c1ccc(NC(=O)c2ccc(Cl)cc2)cc1	1010 nM
CCNc1cc(C(=O)N[C@@H](Cc2ccccc2)[C@H](O)CNC2CCC(F)(F)CC2)c(F)c(N2CCCCS2(=O)=O)c1	210 nM
CN(C)c1ccc(-c2csc(C(=O)NCC3CCN(Cc4ccc(C(C)(C)C)cc4)C3)c2)cc1 (stereo not drawn)	990 nM
O=C(NCc1ccc(F)cc1)c1ccc(N2CCN(c3ccncc3)CC2)cn1	890 nM
CN(C)S(=O)(=O)c1ccc(N2C(=O)[C@@H]3[C@H](C2=O)[C@@]2(c4ccccc4)C(=O)[C@]3(c3ccccc3)C(c3ccccc3)=C2c2ccccc2)cc1	950 nM
COc1ccc2nccc([C@@H](O)CN3CCC(NCc4cc5cccc(O)c5c(=O)[nH]4)CC3)c2c1	390 nM

SMILES	IC50
O=C(Nc1ccc(Cl)cc1)Nc1ccc2nonc2c1	1100 nM
CC(=O)Nc1ccc(Nc2c3ccccc3nc3ccccc23)cc1	1020 nM
Clc1ccc(-c2cnc3ccc(NCCc4cccnc4)nn23)cc1	860 nM
CCCCCCNC(=O)C1Cc2c([nH]c3ccc(C)cc23)C2(CCN(CCc3ccccc3)CC2)N1 (stereo not drawn)	1270 nM
CC(C)c1ccc(NC(=O)NC2CCN(CCCCCNC(=O)/C=C/c3ccc(Cl)c(Cl)c3)CC2)cc1	670 nM
COC(=O)c1ccc2c(-c3nc4ccc(OC)cc4[nH]3)c[nH]c2c1	880 nM
CC(C)[C@@H](NC(=O)NC1CCC(CCN2[C@@H]3CC[C@H]2CC(OC(=O)C(CO)c2ccccc2)C3)CC1)C(O)(c1ccccc1)c1ccccc1 (stereo partly drawn)	810 nM
CN1C(=CC(=O)NC(=O)c2ccccc2)C(C)(C)c2ccccc21	640 nM
COc1ccc2c(c1CCNCCCCNCCc1c(OC)ccc3c1CCCC3)CCCC2	380 nM
Cc1ccc(O)cc1Nc1ccnc2cc(-c3ccccc3)ccc12	1070 nM
COc1cccc2c(NN=Cc3cccc(Cl)c3)cc(C)nc12	710 nM
CS(=O)(=O)N(c1ccccc1)c1cc(C(=O)N[C@@H](Cc2ccccc2)[C@H](O)CNC2CCCCC2)cc(N2CCCC2=O)c1	80 nM
Cc1cc(NCCC(=O)NCCOc2ccccc2)nc(NCCOc2ccccc2)n1	870 nM
COc1ccc2nc3cc(Cl)ccc3c(Nc3ccc(O)c(CNC(C)C)c3)c2c1	140 nM
COc1ccc(-n2cc(CNCCCn3ccnc3)c(-c3cccc(F)c3)n2)cc1	1060 nM
CNC(=O)CSc1nnc(-c2ccc(C)cc2)c(-c2ccc(C)cc2)n1	600 nM
COc1ccc2c(=O)c(-c3ccc(OC(F)(F)F)cc3)c(C)[nH]c2c1	230 nM
O=C(CSc1nc(-c2ccccc2Cl)ns1)Nc1cccc(Cl)c1	790 nM
N#Cc1ccc2c(c1)CCN(CCC1CCC(NC(=O)/C=C/c3nc4ccccc4s3)CC1)CC2 (stereo not drawn)	830 nM
